Laboratory results as given in publication PMC5778758, “Functional characterization of oligopeptide transporter 1 of dairy cows” (Journal of Animal Science and Biotechnology, 2018).
Peptide text beside a SMILES is read from it.

Columns and labels:
[1] = biological target: T1, bPepT1 (Bos taurus, UniProt A5D7E5); assay: Inhibition of [3H]-Gly-Sar uptake in bPepT1-transfected CHO cells; type: cell-based, bovine (dairy cows); details: for IC50: read-out: IC50 (inhibition of [3H]-Gly-Sar uptake), Bovine
T1 construct: expressed in transfected cells; host or cells: CHO cells, transient transfection with pcDNA3.1-bPepT1
T1 sequence (A5D7E5 1-707): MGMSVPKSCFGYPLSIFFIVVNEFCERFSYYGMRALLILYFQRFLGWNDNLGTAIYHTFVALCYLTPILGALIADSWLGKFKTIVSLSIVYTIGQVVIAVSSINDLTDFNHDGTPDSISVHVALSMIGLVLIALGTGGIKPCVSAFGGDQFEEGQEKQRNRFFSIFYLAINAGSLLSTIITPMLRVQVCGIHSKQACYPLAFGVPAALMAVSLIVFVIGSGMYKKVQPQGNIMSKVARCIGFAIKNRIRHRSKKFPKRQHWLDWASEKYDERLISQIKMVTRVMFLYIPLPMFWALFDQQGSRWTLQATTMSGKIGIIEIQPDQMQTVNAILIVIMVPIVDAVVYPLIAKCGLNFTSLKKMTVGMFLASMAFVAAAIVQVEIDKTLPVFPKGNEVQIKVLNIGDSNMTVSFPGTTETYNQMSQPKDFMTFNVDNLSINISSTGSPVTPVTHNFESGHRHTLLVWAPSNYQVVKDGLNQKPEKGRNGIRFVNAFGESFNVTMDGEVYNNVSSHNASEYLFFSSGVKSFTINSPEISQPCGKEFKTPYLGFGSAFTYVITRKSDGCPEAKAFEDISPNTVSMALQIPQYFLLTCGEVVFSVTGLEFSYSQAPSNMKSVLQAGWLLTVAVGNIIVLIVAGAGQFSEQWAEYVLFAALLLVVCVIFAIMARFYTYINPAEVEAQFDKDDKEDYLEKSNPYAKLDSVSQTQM
Experimental: (§1) The CHO cells were cultured in F12 Ham’s medium that contained 10% FBS. All cell cultures were maintained at 37 °C and 5% CO2 in a humidified atmosphere. The culture medium was changed every other day. One day before transfection, the CHO cells were passaged and plated onto 12-well plates at a density of 5.0 × 10^4 cells/well. The bPepT1 cDNA [19] was cloned into the pcDNA3.1 expression vector (Invitrogen, Carlsbad, USA). When the CHO cells were cultured to approximately 70–90% confluence, the cells were transfected with the pcDNA3.1-bPepT1 vector or the pcDNA3.1 vector as a control. For each well, 1 μg of DNA was mixed with 2 μL of P3000™ and 1 μL of Lipofectamine 3000 (Invitrogen, Carlsbad, USA) in 50 μL of OPTI-MEM and incubated at room temperature for 5 min. Then, the DNA-lipid complex was added into each well and the cells were transfected for 24 h.
(§2) The transport activity of bPepT1 was determined using [^3H]-Gly-Sar (3.7 × 10^4 Bq/mL), a well-known hydrolysis-resistant peptide substrate, in transiently transfected CHO cells. The transfected cells were washed three times with uptake buffer at pH 6.0 which contained 140 mmol/L NaCl, 5.4 mmol/L KCl, 0.8 mmol/L MgSO4, 1.8 mmol/L CaCl2, 5 mmol/L glucose, and 25 mmol/L MES. Then, the cells were preincubated with the buffer for 30 min at 37 °C.
For the transport time study, the transfected CHO cells were incubated with 0.02 mmol/L of [^3H]-Gly-Sar (3.7 × 10^4 Bq/mL) for various times (1, 5, 10, 20, 40, and 60 min). For the pH dependency study, the pH of the uptake buffer was adjusted to various pH (5.0, 5.5, 6.0, 6.5, 7.0, and 7.5) with HEPES/Tris or MES/Tris. For the transport kinetic study, Gly-Sar was prepared at various concentrations (0.02–10 mmol/L) with 3.7 × 10^4 Bq/mL [^3H]-Gly-Sar. For the inhibition study, 15 small peptides that contained essential AA at five concentrations (0.001–10 mmol/L) were added into the uptake buffer with [^3H]-Gly-Sar, and they were incubated with the CHO cells for 5 min. Then, the concentration of unlabeled peptide that inhibited 50% of [^3H]-Gly-Sar uptake (IC50) was calculated using PRISM software (GraphPad, San Diego, CA, USA). Uptake was stopped by washing with ice-cold uptake buffer. The cells were lysed by adding 0.5 mL lysis buffer that contained 1% Triton X-100, followed by incubation at 37 °C for 60 min. The radioactivity of the cell lysate was measured using liquid scintillation counting (LSC, Wallac1414, Wallac Co., Turku, Finland). The total protein of the cell lysate was determined using a BCA Protein Assay Kit (Beyotime). The uptake was expressed as nmol/(mg protein • 5 min).

[2] = test system: sheep PepT1; details: CHO cells transfected with sheep PepT1 cDNA; ref Chen et al. [14]; cited from earlier work
Source text: Table 1 Kinetic parameters of CHO cells transfected with bovine, sheep, pig, and chicken PepT1 cDNA | column: IC50, mmol/L / Sheep^c

[3] = test system: pig PepT1; details: CHO cells transfected with pig PepT1 cDNA; CBD = cannot be determined; ref Klang et al. [17]; cited from earlier work
Source text: Table 1 Kinetic parameters of CHO cells transfected with bovine, sheep, pig, and chicken PepT1 cDNA | column: IC50, mmol/L / Pig^d

[4] = test system: chicken PepT1; details: CHO cells transfected with chicken PepT1 cDNA; ref Chen et al. [15]; cited from earlier work
Source text: Table 1 Kinetic parameters of CHO cells transfected with bovine, sheep, pig, and chicken PepT1 cDNA | column: IC50, mmol/L / Chicken^e

[5] = biological target: T1, bPepT1; assay: Gly-Sar transport kinetics in bPepT1-transfected CHO cells; type: cell-based, bovine (dairy cows); details: 5 min, n = 6
Experimental: as §1, §2
For the transport time study, the transfected CHO cells were incubated with 0.02 mmol/L of [^3H]-Gly-Sar (3.7 × 10^4 Bq/mL) for various times (1, 5, 10, 20, 40, and 60 min). For the pH dependency study, the pH of the uptake buffer was adjusted to various pH (5.0, 5.5, 6.0, 6.5, 7.0, and 7.5) with HEPES/Tris or MES/Tris. For the transport kinetic study, Gly-Sar was prepared at various concentrations (0.02–10 mmol/L) with 3.7 × 10^4 Bq/mL [^3H]-Gly-Sar. […] The radioactivity of the cell lysate was measured using liquid scintillation counting (LSC, Wallac1414, Wallac Co., Turku, Finland). The total protein of the cell lysate was determined using a BCA Protein Assay Kit (Beyotime). The uptake was expressed as nmol/(mg protein • 5 min).

[6] = biological target: T1, bPepT1; assay: Time course of [3H]-Gly-Sar uptake in transfected CHO cells; type: cell-based, bovine (dairy cows); details: 0.02 mmol/L; 1–60 min; 24 h after transfection with bPepT1; n = 5
Experimental: as §1, with “Then, the DNA-lipid complex was added into each well and the cells were transfected for 24 h.” left out
(§3) The transport activity of bPepT1 was determined using [^3H]-Gly-Sar (3.7 × 10^4 Bq/mL), a well-known hydrolysis-resistant peptide substrate, in transiently transfected CHO cells. […]
(§4) For the transport time study, the transfected CHO cells were incubated with 0.02 mmol/L of [^3H]-Gly-Sar (3.7 × 10^4 Bq/mL) for various times (1, 5, 10, 20, 40, and 60 min). […] The radioactivity of the cell lysate was measured using liquid scintillation counting (LSC, Wallac1414, Wallac Co., Turku, Finland). The total protein of the cell lysate was determined using a BCA Protein Assay Kit (Beyotime). The uptake was expressed as nmol/(mg protein • 5 min).

[7] = test system: CHO cells; assay: [3H]-Gly-Sar uptake in CHO cells transfected with pcDNA3.1 control vector; type: cell-based, Chinese hamster; details: 0.02 mmol/L, 1–60 min, n = 5
Experimental: as §1, with “Then, the DNA-lipid complex was added into each well and the cells were transfected for 24 h.” left out
as §3, §4

[8] = biological target: T1, bPepT1; assay: pH dependency of Gly-Sar uptake in bPepT1-transfected CHO cells; type: cell-based, bovine (dairy cows); details: 0.02 mmol/L [3H]-Gly-Sar; pH 5.0–7.5; 5 min; n = 4; P < 0.05
Experimental: as §1, with “Then, the DNA-lipid complex was added into each well and the cells were transfected for 24 h.” left out
as §3, §4

[9] = test system: chicken PepT1; details: ref [15], read-out: Km for Gly-Sar, chickens; cited from earlier work
Source text: (§5) These features of bPepT1 met the requirement for transporting a large number of various small peptides. The str ...

[10] = test system: sheep PepT1; details: ref [14], read-out: Km for Gly-Sar, sheep; cited from earlier work
Source text: as §5

[11] = 0.02 mmol/L [3H]-Gly-Sar (3.7 × 10^4 Bq/mL), unlabeled peptide 0.001–10 mmol/L, pH 6.0, 5 min, liquid scintillation counting, n = 4 (Fig. 6), CBD = cannot be determined

Molecule | IC50 [1, 11] [µM] | further results
NCCCC[C@H](NC(=O)CN)C(=O)O [Gly-Lys] (H-Gly-Lys-OH) | 78 | 
CSCC[C@H](NC(=O)CN)C(=O)O [Gly-Met] | 32 | 
NCC(=O)O [Gly] |  | Inhibition of [3H]-Gly-Sar uptake (in words) ([1]; 0.02 mmol/L [3H]-Gly-Sar, pH 6.0, 5 min): not inhibited
CC(C)C[C@H](N)C(=O)NCC(=O)NCC(=O)O [Leu-Gly-Gly] (H-Leu-Gly-Gly-OH) | 2070 | 
NCCCC[C@H](NC(=O)[C@@H](N)CCCCN)C(=O)O [Lys-Lys] | 9650 | 
CSCC[C@H](NC(=O)[C@@H](N)CCCCN)C(=O)O [Lys-Met] | 32 | 
NCCCC[C@H](N)C(=O)N[C@@H](Cc1ccccc1)C(=O)O [Lys-Phe] | 90 | 
NCCCC[C@H](NC(=O)[C@H](Cc1c[nH]c2ccccc12)NC(=O)[C@@H](N)CCCCN)C(=O)O [Lys-Trp-Lys] (H-Lys-Trp-Lys-OH; N-terminus and C-terminus assumed) | > 2070 | IC50 (inhibition of [3H]-Gly-Sar uptake), Bovine [1, 11]: CBD; Favorability as substrate / affinity for bPepT1 (in words) ([1]; judged from IC50 values): less favorable substrates for bPepT1; IC50 [2]: 3730 µM; IC50 [3]: 2200 µM; IC50 [4]: 5900 µM
CSCC[C@H](N)C(=O)N[C@@H](CCC(=O)O)C(=O)O [Met-Glu] (H-Met-Glu-OH) | 23 | 
CSCC[C@H](NC(=O)[C@H](CCSC)NC(=O)CNC(=O)[C@@H](N)CCSC)C(=O)O [Met-Gly-Met-Met] (H-MGMM-OH) | 6040 | 
CSCC[C@H](N)C(=O)NCC(=O)O [Met-Gly] (H-Met-Gly-OH) | 58 | 
CSCC[C@H](N)C(=O)N[C@@H](CC(C)C)C(=O)N[C@@H](Cc1ccccc1)C(=O)O [Met-Leu-Phe] | 50 | 
CSCC[C@H](N)C(=O)N[C@@H](CC(C)C)C(=O)O [Met-Leu] (H-Met-Leu-OH) | 80 | 
CSCC[C@H](N)C(=O)N[C@@H](CCCCN)C(=O)O [Met-Lys] (H-Met-Lys-OH) | 20 | 
CSCC[C@H](NC(=O)[C@@H](N)CCSC)C(=O)O [Met-Met] (H-Met-Met-OH) | 96 | 
N[C@@H](Cc1c[nH]c2ccccc12)C(=O)N[C@@H](Cc1ccccc1)C(=O)O [Trp-Phe] (H-Trp-Phe-OH) | 14 | 
glycyl-sarcosine [Gly-Sar] |  | Km ([5]; Gly-Sar 0.02–10 mmol/L with 3.7 × 10^4 Bq/mL [3H]-Gly-Sar, 37 °C preincubation, Michaelis–Menten, mean ± SEM): 940 ± 60 µM; maximum velocity (Vmax) ([5]; Gly-Sar 0.02–10 mmol/L with 3.7 × 10^4 Bq/mL [3H]-Gly-Sar, Michaelis–Menten, mean ± SEM): 20.80 ± 1.74 nmol/(mg protein • 5 min); Gly-Sar concentration at which transport was saturated ([5]; Gly-Sar 0.02–10 mmol/L): 5 mmol/L; Time course of [3H]-Gly-Sar uptake [6]: increased rapidly and linearly in the first 10 min and reached a plateau subsequently; [3H]-Gly-Sar uptake in control-vector cells [7]: only marginal, and it was much lower than in CHO cells that were transfected with the bPepT1 expression vector; pH dependency of [3H]-Gly-Sar uptake [8]: pH-dependent and greater at pH 6.5 and 7.0 than at pH 5.5 and 6.0 which was greater than at pH 5.0 and 7.5; Km [9]: 2600 ± 300 µM; Km [10]: 1000 ± 100 µM
